Entries after “also recorded” stand apart in the source; their conditions may differ.
Tested on: protein carbonylation
Assay: Protein carbonylation in CYP-CIPN rat hindpaw epidermis
Assay type: in vivo
Settings: 8-AG 5 mg/kg/day in drinking water
Procedure: Animals. This study employed female Harlan Sprague Dawley (HSD) rats (3-4 mo; Envigo, Indianapolis, IN) and were divided into the following groups: 1) Control, 2) Cyclophosphamide (CYP, 75 mg/kg i.p. in saline vehicle; administered on days 0, 3 and 6); 3) 8-aminoguanine (8-AG; 5 mg/kg/day in drinking water; beginning 2 weeks prior to CYP and continuing until sacrifice (day 8)). The dose of 8-AG is based on our preliminary and published experiments. […] The investigation conforms to the Guide for the Care and Use of Laboratory Animals published by the US National Institutes of Health (NIH Publication No. 85-23, revised 1996). […]
Western immunoblotting: Following the testing paradigms, rats were deeply anesthetized and tissues (e.g., epidermis, peripheral sciatic nerves, spinal cord segments (L3-L5) and dorsal root ganglia (L3-L5) were removed, and a portion of each preparation was homogenized using Lysing Matrix D in a FASTPREP® 24 instrument (MP Biomedicals, Solon, OH) in HBSS [5 mM KCl, 0.3 mM KH2PO4, 138 mM NaCl, 4 mM NaHO3, 0.3 mM Na2HCO3, 0.3 mM Na2HPO4, 5.6 mM glucose and 10 mM Hepes, pH 7.4 containing complete protease inhibitor cocktail (1 tablet/10 ml, Roche, Indianapolis, IN)] and phosphatase inhibitor cocktail (Sigma, 1:100). […] The protein concentrations of the supernatants were determined using the Pierce BCA protein assay (Thermo Scientific, Rockford, IL). […]

Nc1nc2[nH]c(N)nc2c(=O)[nH]1 [8-AG, 8-Aminoguanine]
effect on CYP-induced protein carbonylation: completely prevents; also recorded: restored values to that of a control state

Reference: US20250127787A1, “METHODS FOR TREATING PERIPHERAL NEUROPATHY” (University of Pittsburgh - Of the Commonwealth System of …, priority 2021, published 2025)
